The values below come from patent US8551984B2, “Aminopyrimidines as SYK inhibitors” (Merck Sharp & Dohme Corp., priority 2009, dated 2013).

The first assay concerns the target recombinant human SYK (GST-hSYK fusion protein) (Homo sapiens, UniProt P43405). As to the kind of experiment: biochemical. Particulars: RHSYK Activity, Table 54A.
From the text: Homogeneous Time-Resolved Fluorescence (HTRF) Assay for the Recombinant Human SYK Enzyme:
For `Cc1cc(Nc2nccc(C(F)(F)F)n2)cc(-c2cnc(C3(O)CCN(S(=O)(=O)C(C)C)CC3)s2)c1` [Example 54A-1], the IC50 is < 100 nM.
As to `Cc1cc(Nc2nccc(C(F)(F)F)n2)cc(-c2cnc(C3(O)CCN(S(=O)(=O)C(F)(F)F)CC3)s2)c1` [Example 54A-2], the half-maximal inhibitory concentration (IC50) is < 100 nM.
As to `Cc1cc(Nc2nccc(C(F)(F)F)n2)cc(-c2cnc(C3(O)CCN(S(=O)(=O)c4cn(C)cn4)CC3)s2)c1` [Example 54A-3], the concentration for half-maximal inhibition (IC50) is < 100 nM.
On the same count and under the same terms, as for `CCC(=O)N1CCC(O)(c2ncc(-c3cc(C)cc(Nc4nccc(C(F)(F)F)n4)c3)s2)CC1` [Example 54A-4], the figure is < 100 nM; as for `Cc1cc(Nc2nccc(C(F)(F)F)n2)cc(-c2cnc(C3(O)CCN(C(=O)CO)CC3)s2)c1` [Example 54A-5], < 100 nM.
As for `Cc1cc(Nc2nccc(C(F)(F)F)n2)cc(-c2cnc(C3(O)CCN(C(=O)CC#N)CC3)s2)c1` [Example 54A-6], the concentration for half-maximal inhibition (IC50) is < 100 nM.
With `Cc1cc(Nc2nccc(C(F)(F)F)n2)cc(-c2cnc(C3(O)CCN(C(=O)CN(C)C)CC3)s2)c1` [Example 54A-7], the concentration for half-maximal inhibition (IC50) is < 100 nM.
Take `Cc1cc(Nc2nccc(C(F)(F)F)n2)cc(-c2cnc(C3(O)CCN(C(=O)c4cccnc4)CC3)s2)c1` [Example 54A-8]: the 50% inhibitory concentration (IC50) is < 100 nM.
The same measure, in the same setting: with `Cc1cc(Nc2nccc(C(F)(F)F)n2)cc(-c2cnc(C3(O)CCN(C(=O)c4ccccn4)CC3)s2)c1` [Example 54A-9] the figure was < 100 nM.
Turning to `Cc1cc(Nc2nccc(C(F)(F)F)n2)cc(-c2cnc(C3(O)CCN(C(=O)CN4CCCC4=O)CC3)s2)c1` [Example 54A-10], the IC50 was < 100 nM.
`Cc1cc(Nc2nccc(C(F)(F)F)n2)cc(-c2cnc(C3(O)CCN(C(=O)C4CC4)CC3)s2)c1` [Example 54A-11]: the IC50 is < 100 nM.
For `Cc1cc(Nc2nccc(C(F)(F)F)n2)cc(-c2cnc(C3(O)CCN(C(=O)NC4CCCCC4)CC3)s2)c1` [Example 54A-12], the IC50 is < 100 nM.
Consider `Cc1cc(Nc2nccc(C(F)(F)F)n2)cc(-c2cnc(C3(O)CCN(C(=O)NC(C)C)CC3)s2)c1` [Example 54A-13], for which the IC50 was < 100 nM.
Same read-out and setting: as for `CCCNC(=O)N1CCC(O)(c2ncc(-c3cc(C)cc(Nc4nccc(C(F)(F)F)n4)c3)s2)CC1` [Example 54A-14], the figure is < 100 nM.
`Cc1cc(Nc2nccc(C(F)(F)F)n2)cc(-c2cnc(C3(O)CCN(C(=O)N(C)C)CC3)s2)c1` [Example 54A-15]: the IC50 is < 100 nM.
Same read-out and setting: with `COc1ccnc(Nc2cc(C)cc(-c3cnc(C4(O)CCN(C(=O)NC(=O)N(C)C)CC4)s3)c2)n1` [Example 54A-17] the figure was < 100 nM.
For the molecule `COc1ccnc(Nc2cc(C)cc(-c3cnc(C4(O)CCN(C(N)=O)CC4)s3)c2)n1` [Example 54A-19], the half-maximal inhibitory concentration (IC50) was < 100 nM.
`COc1ccnc(Nc2cc(C)cc(-c3cnc(C4(O)CCNCC4)s3)c2)n1` [Example 54A-20]: the concentration for half-maximal inhibition (IC50) is < 100 nM.
For `Cc1cc(Nc2nccc(C(F)(F)F)n2)cc(-c2cnc(C3(O)CCN(C(=O)[C@@H](C)O)CC3)s2)c1` [Example 54A-21], the IC50 is < 100 nM.
Take `Cc1cc(Nc2nccc(C(F)(F)F)n2)cc(-c2cnc(C3(O)CCN(C(=O)CCO)CC3)s2)c1` [Example 54A-22]: the IC50 is < 100 nM.
Regarding `Cc1cc(Nc2nccc(C(F)(F)F)n2)cc(-c2cnc(C3(O)CCN(C(=O)CCC#N)CC3)s2)c1` [Example 54A-23], the IC50 is < 100 nM.
The same measure, in the same setting: with `Cc1cc(Nc2nccc(C(F)(F)F)n2)cc(-c2cnc(C3(O)CCN(CC(F)(F)F)CC3)s2)c1` [Example 54A-24] the figure was < 100 nM.
Turning to `Cc1cc(Nc2nccc(C(F)(F)F)n2)cc(-c2cnc(C3(O)CCN(C(=O)CC(N)=O)CC3)s2)c1` [Example 54A-25], the IC50 is < 100 nM.
Take `Cc1cc(Nc2nccc(C(F)(F)F)n2)cc(-c2cnc(C3(O)CCN(C(=O)CC(C)O)CC3)s2)c1` (stereo not shown) [Example 54A-27]: the IC50 was < 100 nM.
For the molecule `Cc1cc(Nc2nccc(C(F)(F)F)n2)cc(-c2cnc(C3(O)CCN(C(=O)c4ncc[nH]4)CC3)s2)c1` [Example 54A-28], the IC50 was < 100 nM.
For the molecule `Cc1cc(Nc2nccc(C(F)(F)F)n2)cc(-c2cnc(C3(O)CCN(C(=O)c4c[nH]cn4)CC3)s2)c1` [Example 54A-29], the IC50 was < 100 nM.
`Cc1cc(Nc2nccc(C(F)(F)F)n2)cc(-c2cnc(C3(O)CCN(C(=O)c4nc[nH]n4)CC3)s2)c1` [Example 54A-30]: the IC50 is < 100 nM.
As for `Cc1cc(Nc2nccc(C(F)(F)F)n2)cc(-c2cnc(C3(O)CCN(C(=O)c4c[nH]nn4)CC3)s2)c1` [Example 54A-31], the IC50 was < 100 nM.
For the molecule `Cc1cc(Nc2nccc(C(F)(F)F)n2)cc(-c2cnc(C3(O)CCN(C(=O)C4CCOC4)CC3)s2)c1` (stereo not shown) [Example 54A-32], the IC50 is < 100 nM.
With `Cc1cc(Nc2nccc(C(F)(F)F)n2)cc(-c2cnc(C3(O)CCN(C(=O)C4CC(O)C4)CC3)s2)c1` (stereo not shown) [Example 54A-33], the half-maximal inhibitory concentration (IC50) was < 100 nM.
`Cc1cc(Nc2nccc(C(F)(F)F)n2)cc(-c2cnc(C3(O)CCN(C(=O)c4ccccc4)CC3)s2)c1` [Example 54A-34]: the IC50 was < 100 nM.
`Cc1cc(Nc2nccc(C(F)(F)F)n2)cc(-c2cnc(C3(O)CCN(C(=O)Cn4ccnc4)CC3)s2)c1` [Example 54A-35]: the IC50 is < 100 nM.
On to `Cc1cc(Nc2nccc(C(F)(F)F)n2)cc(-c2cnc(C3(O)CCN(C(=O)Cc4c[nH]cn4)CC3)s2)c1` [Example 54A-36], for which the IC50 is < 100 nM.
As for `Cc1cc(Nc2nccc(C(F)(F)F)n2)cc(-c2cnc(C3(O)CCN(C(=O)Cn4cncn4)CC3)s2)c1` [Example 54A-37], the IC50 was < 100 nM.
For `Cc1cc(Nc2nccc(C(F)(F)F)n2)cc(-c2cnc(C3(O)CCN(C(=O)[C@@H]4CCC(=O)N4)CC3)s2)c1` [Example 54A-38], the half-maximal inhibitory concentration (IC50) was < 100 nM.
As to `Cc1cc(Nc2nccc(C(F)(F)F)n2)cc(-c2cnc(C3(O)CCN(C(=O)C4CNC(=O)N4)CC3)s2)c1` (stereo not shown) [Example 54A-39], the concentration for half-maximal inhibition (IC50) was < 100 nM.
For `Cc1cc(Nc2nccc(C(F)(F)F)n2)cc(-c2cnc(C3(O)CCN(C(=O)CC4CCOC4)CC3)s2)c1` (stereo not shown) [Example 54A-40], the concentration for half-maximal inhibition (IC50) was < 100 nM.
Still for that read-out and setting: as for `Cc1cc(Nc2nccc(C(F)(F)F)n2)cc(-c2cnc(C3(O)CCN(C(=O)C4CCCOC4)CC3)s2)c1` (stereo not shown) [Example 54A-41], the figure is < 100 nM; as for `Cc1cc(Nc2nccc(C(F)(F)F)n2)cc(-c2cnc(C3(O)CCN(C(=O)CC4CCCO4)CC3)s2)c1` (stereo not shown) [Example 54A-42], < 100 nM.
The same measure, in the same setting: as for `CCOC(=O)CC(=O)N1CCC(O)(c2ncc(-c3cc(C)cc(Nc4nccc(C(F)(F)F)n4)c3)s2)CC1` [Example 54A-43], the figure is < 100 nM.
As for `Cc1cc(Nc2nccc(C(F)(F)F)n2)cc(-c2cnc(C3(O)CCN(C(=O)C(C)(CO)CO)CC3)s2)c1` [Example 54A-44], the IC50 was < 100 nM.
`Cc1cc(Nc2nccc(C(F)(F)F)n2)cc(-c2cnc(C3(O)CCN(C(=O)Cc4cccnc4)CC3)s2)c1` [Example 54A-45]: the IC50 was < 100 nM.
With `Cc1cc(Nc2nccc(C(F)(F)F)n2)cc(-c2cnc(C3(O)CCN(C(=O)Cc4ccccn4)CC3)s2)c1` [Example 54A-46], the IC50 was < 100 nM.
Same read-out and setting: with `Cc1cc(Nc2nccc(C(F)(F)F)n2)cc(-c2cnc(C3(O)CCN(C(=O)CS(C)(=O)=O)CC3)s2)c1` [Example 54A-47] the figure was < 100 nM; with `Cc1cc(Nc2nccc(C(F)(F)F)n2)cc(-c2cnc(C3(O)CCN(C(=O)CCc4cn[nH]c4)CC3)s2)c1` [Example 54A-50], < 100 nM.
Still for that read-out and setting: as for `Cc1cc(Nc2nccc(C(F)(F)F)n2)cc(-c2cnc(C3(O)CCN(C(=O)CCn4cncn4)CC3)s2)c1` [Example 54A-51], the figure is < 100 nM.
For the molecule `Cc1cc(Nc2nccc(C(F)(F)F)n2)cc(-c2cnc(C3(O)CCN(C(=O)[C@@H]4CCCC(=O)N4)CC3)s2)c1` [Example 54A-52], the IC50 is < 100 nM.
As to `Cc1cc(Nc2nccc(C(F)(F)F)n2)cc(-c2cnc(C3(O)CCN(C(=O)CC4CCOCC4)CC3)s2)c1` [Example 54A-53], the IC50 was < 100 nM.
As to `COC(=O)C1(C(=O)N2CCC(O)(c3ncc(-c4cc(C)cc(Nc5nccc(C(F)(F)F)n5)c4)s3)CC2)CC1` [Example 54A-54], the IC50 was < 100 nM.
The same measure, in the same setting: with `C#Cc1ccc(C(=O)N2CCC(O)(c3ncc(-c4cc(C)cc(Nc5nccc(C(F)(F)F)n5)c4)s3)CC2)cc1` [Example 54A-55] the figure was < 100 nM; with `Cc1cc(Nc2nccc(C(F)(F)F)n2)cc(-c2cnc(C3(O)CCN(C(=O)c4ccc(C#N)cc4)CC3)s2)c1` [Example 54A-56], < 100 nM; with `Cc1cc(Nc2nccc(C(F)(F)F)n2)cc(-c2cnc(C3(O)CCN(C(=O)c4ccc(O)c(F)c4)CC3)s2)c1` [Example 54A-57], < 100 nM.
Take `Cc1cc(Nc2nccc(C(F)(F)F)n2)cc(-c2cnc(C3(O)CCN(C(=O)CC(N)C(F)(F)F)CC3)s2)c1` (stereo not shown) [Example 54A-58]: the IC50 was < 100 nM.
On to `COC(=O)CN1CCC(O)(c2ncc(-c3cc(C)cc(Nc4nccc(C(F)(F)F)n4)c3)s2)CC1` [Example 54A-70], for which the IC50 was < 100 nM.
On to `COC(=O)CCN1CCC(O)(c2ncc(-c3cc(C)cc(Nc4nccc(C(F)(F)F)n4)c3)s2)CC1` [Example 54A-71], for which the 50% inhibitory concentration (IC50) is < 100 nM.
On to `COC(=O)C(C)N1CCC(O)(c2ncc(-c3cc(C)cc(Nc4nccc(C(F)(F)F)n4)c3)s2)CC1` (stereo not shown) [Example 54A-72], for which the IC50 was < 100 nM.
Consider `COC(=O)CCCN1CCC(O)(c2ncc(-c3cc(C)cc(Nc4nccc(C(F)(F)F)n4)c3)s2)CC1` [Example 54A-73], for which the IC50 is < 100 nM.

The assay is the same for the next values; noted with them: rhSYK Activity, Table 54D.
As to `Cc1cc(Nc2nccc(C(C)C)n2)cc(-c2cnc(C3(O)CCCNCC3)s2)c1` (stereo not shown) [Example 54D-1], the IC50 is < 100 nM.
In the case of `CC(=O)N1CCCC(O)(c2ncc(-c3cc(C)cc(Nc4nccc(C(F)(F)F)n4)c3)s2)CC1` (stereo not shown) [Example 54D-2], the IC50 was < 100 nM.
As to `Cc1cc(Nc2nccc(C(C)C)n2)cc(-c2cnc(C3(O)CCCN(C(=O)C(C)O)CC3)s2)c1` (stereo not shown) [Example 54D-4], the IC50 is < 100 nM.

Still in this assay, the particulars now being: rhSYK Activity, table after Example 43.
`[2H]C([2H])([2H])c1cc(Nc2nccc(C(F)(F)F)n2)cc(-c2cnc([C@]3(O)CC[C@H](C(=O)O)CC3)s2)c1` [Example 43-1]: the half-inhibitory concentration (IC50) was < 100 nM.
